Source: patent US10035801B2, “Pyrazolo compounds and uses thereof” (CONSTELLATION PHARMACEUTICALS, INC., priority 2013, dated 2018)
pIC50: −log10 of the molar value.

Biological target: T1, KDM5A (Homo sapiens, UniProt P29375)
T1 construct: Full length KDM5A enzyme was expressed and purified inhouse; made in house
Assay: KDM5 enzyme assay, KDM5A HTRF (Example 463)
Format: biochemical
Conditions: not given

T1 sequence (P29375 whole entry): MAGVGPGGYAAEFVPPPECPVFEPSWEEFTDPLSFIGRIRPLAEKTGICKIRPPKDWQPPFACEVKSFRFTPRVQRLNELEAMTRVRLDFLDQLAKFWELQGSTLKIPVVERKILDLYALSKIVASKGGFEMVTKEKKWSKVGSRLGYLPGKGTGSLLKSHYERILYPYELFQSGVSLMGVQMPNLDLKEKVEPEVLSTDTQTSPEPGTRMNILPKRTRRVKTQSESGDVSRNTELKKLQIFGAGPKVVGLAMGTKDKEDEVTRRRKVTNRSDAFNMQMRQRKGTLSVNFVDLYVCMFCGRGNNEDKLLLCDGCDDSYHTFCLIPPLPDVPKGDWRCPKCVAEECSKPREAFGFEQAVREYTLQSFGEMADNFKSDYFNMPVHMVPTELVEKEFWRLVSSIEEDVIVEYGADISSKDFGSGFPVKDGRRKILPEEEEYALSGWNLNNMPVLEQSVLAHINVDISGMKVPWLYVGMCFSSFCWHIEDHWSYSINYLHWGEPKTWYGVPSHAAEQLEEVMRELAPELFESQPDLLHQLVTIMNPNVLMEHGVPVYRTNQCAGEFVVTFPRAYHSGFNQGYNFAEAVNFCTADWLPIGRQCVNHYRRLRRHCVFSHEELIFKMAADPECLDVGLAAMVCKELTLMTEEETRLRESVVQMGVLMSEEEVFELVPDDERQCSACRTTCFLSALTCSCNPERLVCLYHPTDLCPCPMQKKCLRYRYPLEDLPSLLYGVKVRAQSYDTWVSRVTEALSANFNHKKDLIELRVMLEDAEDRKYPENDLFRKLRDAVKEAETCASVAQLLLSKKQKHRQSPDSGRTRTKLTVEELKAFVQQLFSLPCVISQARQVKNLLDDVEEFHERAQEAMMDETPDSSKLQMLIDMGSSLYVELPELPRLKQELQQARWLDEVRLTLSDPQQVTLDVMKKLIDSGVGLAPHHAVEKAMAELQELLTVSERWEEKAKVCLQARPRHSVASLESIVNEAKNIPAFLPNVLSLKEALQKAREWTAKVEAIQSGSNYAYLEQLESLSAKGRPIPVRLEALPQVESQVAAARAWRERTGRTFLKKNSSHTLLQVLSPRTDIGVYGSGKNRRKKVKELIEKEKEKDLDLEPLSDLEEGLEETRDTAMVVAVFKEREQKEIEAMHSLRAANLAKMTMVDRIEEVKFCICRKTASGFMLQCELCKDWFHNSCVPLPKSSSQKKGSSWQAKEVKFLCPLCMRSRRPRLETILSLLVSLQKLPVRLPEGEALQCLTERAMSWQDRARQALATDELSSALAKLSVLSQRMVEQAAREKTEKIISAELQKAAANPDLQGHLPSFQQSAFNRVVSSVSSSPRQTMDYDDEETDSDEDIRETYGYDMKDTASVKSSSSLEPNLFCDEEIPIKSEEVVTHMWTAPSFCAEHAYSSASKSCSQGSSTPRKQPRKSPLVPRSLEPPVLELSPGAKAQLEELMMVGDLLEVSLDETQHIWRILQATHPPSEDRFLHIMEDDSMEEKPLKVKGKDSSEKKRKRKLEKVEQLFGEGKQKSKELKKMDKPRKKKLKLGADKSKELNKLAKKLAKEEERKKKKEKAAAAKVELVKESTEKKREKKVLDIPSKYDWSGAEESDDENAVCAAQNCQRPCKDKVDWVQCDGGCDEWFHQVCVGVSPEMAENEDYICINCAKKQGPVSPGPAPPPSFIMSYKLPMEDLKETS

| Structure (SMILES) | pIC50 |
| --- | --- |
| CC(C)c1c[nH]c2c(C#N)cnn2c1=O [Example 197] | 7.54 |
| C=C(C)c1c(-c2ccccc2)[nH]c2c(C#N)cnn2c1=O [Example 224] | 7.60 |

Same assay, conditions: compounds of Examples 1-432; read-out: Example 463 Assay KDM5A HTRF IC50

| Structure (SMILES) | pIC50 |
| --- | --- |
| CC(C)c1c(-c2cccc(Oc3ccccc3)c2)[nH]c2c(C#N)cnn2c1=O [Example 136] | 8.05 |
| COc1cc(-c2[nH]c3c(C#N)cnn3c(=O)c2C(C)C)ccc1C [Example 140] | 7.92 |
| COc1ccc(-c2[nH]c3c(C#N)cnn3c(=O)c2C(C)C)cc1OC [Example 143] | 7.60 |
| COc1c(C)cc(-c2[nH]c3c(C#N)cnn3c(=O)c2C(C)C)cc1C [Example 144] | 7.72 |
| Cc1ccc(-c2[nH]c3c(C#N)cnn3c(=O)c2C(C)C)cc1C#N [Example 150] | 7.85 |
| CC(C)c1c(-c2cnn(CC(F)(F)F)c2)[nH]c2c(C#N)cnn2c1=O [Example 156] | 7.66 |
| CC(C)c1c(-c2cnn(Cc3cccc(Cl)c3)c2)[nH]c2c(C#N)cnn2c1=O [Example 157] | 8.15 |
| CC(C)c1c(-c2cccc(C(F)(F)F)c2)n(C)c2c(C#N)cnn2c1=O [Example 164] | 6.82 |
| CC(C)c1c(C2=CCOC2)n(C)c2c(C#N)cnn2c1=O [Example 170] | 6.68 |
| COc1ccc(-c2c(C(C)C)c(=O)n3ncc(C#N)c3n2C)cc1 [Example 173] | 7.41 |
| CC(C)c1c(-c2ccccc2F)n(C)c2c(C#N)cnn2c1=O [Example 174] | 7.09 |
| CC(C)c1c(-c2cccc(-c3ccccc3)c2)n(C)c2c(C#N)cnn2c1=O [Example 175] | 7.37 |
| CCc1c(-c2ccco2)n(C)c2c(C#N)cnn2c1=O [Example 177] | 7.42 |
| CC(C)c1c(-c2ccco2)n(C)c2c(C#N)cnn2c1=O [Example 178] | 7.37 |
| CC(C)c1c(-c2cnn(Cc3ccccc3)c2)n(C)c2c(C#N)cnn2c1=O [Example 181] | 7.22 |
| CCc1c(-c2cnn(Cc3ccccc3)c2)n(C)c2c(C#N)cnn2c1=O [Example 182] | 6.89 |
| CC(C)c1c(-c2ccc(F)cc2)n(C)c2c(C#N)cnn2c1=O [Example 183] | 7.48 |
| CC(C)c1c(-c2ccc(C#N)cc2)n(C)c2c(C#N)cnn2c1=O [Example 184] | 7.25 |
| CC(C)c1c(-c2ccc(-c3ccccc3)o2)n(C)c2c(C#N)cnn2c1=O [Example 185] | 7.70 |

| Structure (SMILES) | pIC50 |
| --- | --- |
| CC(C)c1c(-c2cn[nH]c2)n(C)c2c(C#N)cnn2c1=O [Example 186] | 7.31 |
| CC(C)c1c(-c2cc(-c3ccccc3)co2)n(C)c2c(C#N)cnn2c1=O [Example 187] | 6.12 |
| CC(C)c1c(-c2ccc(=O)n(C)c2)n(C)c2c(C#N)cnn2c1=O [Example 188] | 6.62 |
| CCc1c(C)n(CC2CC2)c2c(C#N)cnn2c1=O [Example 193] | 6.07 |
| Cc1c(C(C)C)c(=O)n2ncc(C#N)c2n1C [Example 196] | 7.33 |
| CC(C)c1cn(C)c2c(C#N)cnn2c1=O [Example 198] | 6.21 |
| CCOC(=O)c1c(CC)c(=O)n2ncc(C#N)c2n1C [Example 199] | 6.74 |
| CCc1c(C(=O)O)n(C)c2c(C#N)cnn2c1=O [Example 200] | 6.05 |
| CCc1c(C(N)=O)[nH]c2c(C#N)cnn2c1=O [Example 201] | 7.54 |
| CC(C)c1c(-c2ccc(S(C)(=O)=O)c(F)c2)[nH]c2c(C#N)cnn2c1=O [Example 206] | 7.68 |
| CC(C)c1c(-c2ccn(S(C)(=O)=O)c2)[nH]c2c(C#N)cnn2c1=O [Example 210] | 7.92 |
| CC(C)c1c(NC(=O)C2CC2)[nH]c2c(C#N)cnn2c1=O [Example 213] | 7.74 |
| N#Cc1cnn2c(=O)cc(-c3cccc(Br)c3)[nH]c12 [Example 215] | 6.39 |
| Cc1[nH]c2c(C#N)cnn2c(=O)c1-c1ccccc1 [Example 217] | 5.68 |
| Cn1c(-c2ccccc2)c(Br)c(=O)n2ncc(C#N)c12 [Example 218] | 5.10 |
| Cn1c(-c2ccccc2)c(Cl)c(=O)n2ncc(C#N)c12 [Example 219] | 5.37 |
| Cc1[nH]c2c(C#N)cnn2c(=O)c1Sc1ccccc1Cl [Example 220] | 4.68 |
| N#Cc1cnn2c(=O)c(CCF)c(-c3ccccc3)[nH]c12 [Example 222] | 7.92 |
| CC#CCc1c(-c2ccccc2)[nH]c2c(C#N)cnn2c1=O [Example 225] | 5.27 |

The next lines start with the values.

| pIC50 | Structure (SMILES) |
| --- | --- |
| 8.14 | CCc1ccc(-c2[nH]c3c(C#N)cnn3c(=O)c2C(C)C)o1 [Example 132] |
| 7.96 | COCCn1cc(-c2[nH]c3c(C#N)cnn3c(=O)c2C(C)C)cn1 [Example 133] |
| 8.26 | CC(C)c1c(-c2cnn(Cc3cccc4ccccc34)c2)[nH]c2c(C#N)cnn2c1=O [Example 134] |
| 8.24 | CC(C)c1c(-c2cnn(Cc3ccc(-c4ccccc4)cc3)c2)[nH]c2c(C#N)cnn2c1=O [Example 135] |
| 7.92 | CC(C)c1c(C#Cc2ccccc2)[nH]c2c(C#N)cnn2c1=O [Example 137] |
| 7.82 | CC(C)c1c(-c2ccc(Cl)c(Cl)c2)[nH]c2c(C#N)cnn2c1=O [Example 138] |
| 7.89 | COc1ccc(-c2[nH]c3c(C#N)cnn3c(=O)c2C(C)C)cc1Cl [Example 139] |
| 8.03 | CC(C)c1c(-c2cnn(Cc3cscn3)c2)[nH]c2c(C#N)cnn2c1=O [Example 141] |
| 7.92 | CC(C)c1c(-c2ccc3[nH]ncc3c2)[nH]c2c(C#N)cnn2c1=O [Example 142] |
| 7.77 | CC(C)c1c(-c2cnn(C3COC3)c2)[nH]c2c(C#N)cnn2c1=O [Example 145] |
| 8.22 | CC(C)c1c(-c2cnn(CCN(C)C)c2)[nH]c2c(C#N)cnn2c1=O [Example 149] |
| 7.77 | CC(C)c1c(-c2ccc3c(c2)OCO3)[nH]c2c(C#N)cnn2c1=O [Example 151] |
| 7.85 | CC(C)c1c(-c2ccc3c(c2)CCO3)[nH]c2c(C#N)cnn2c1=O [Example 152] |
| 8.22 | CC(C)c1c(-c2cnn(Cc3cccc(F)c3)c2)[nH]c2c(C#N)cnn2c1=O [Example 154] |
| 8.01 | CC(C)c1c(-c2cnn(Cc3cccs3)c2)[nH]c2c(C#N)cnn2c1=O [Example 155] |
| 7.82 | CC(C)Cn1cc(-c2[nH]c3c(C#N)cnn3c(=O)c2C(C)C)cn1 [Example 158] |
| 7.46 | CC(C)c1c(-c2cnn(CCC(F)(F)F)c2)[nH]c2c(C#N)cnn2c1=O [Example 159] |
| 7.72 | CC(C)c1c(-c2cnn(C(F)F)c2)[nH]c2c(C#N)cnn2c1=O [Example 160] |
| 7.89 | CC(C)c1c(-c2cnn(CCC#N)c2)[nH]c2c(C#N)cnn2c1=O [Example 161] |
| 7.19 | CCc1c(-c2ccoc2)n(C)c2c(C#N)cnn2c1=O [Example 162] |
| 7.01 | CC(C)c1c(-c2cccc(F)c2)n(C)c2c(C#N)cnn2c1=O [Example 163] |
| 7.21 | COc1cccc(-c2c(C(C)C)c(=O)n3ncc(C#N)c3n2C)c1 [Example 165] |
| 6.70 | CC(C)c1c(-c2cccc(C#N)c2)n(C)c2c(C#N)cnn2c1=O [Example 166] |
| 7.00 | CC(C)c1c(-c2cnn(C)c2)n(C)c2c(C#N)cnn2c1=O [Example 167] |
| 7.34 | CC(C)c1c(-c2cccs2)n(C)c2c(C#N)cnn2c1=O [Example 168] |
| 7.33 | CC(C)c1c(-c2ccsc2)n(C)c2c(C#N)cnn2c1=O [Example 169] |

| pIC50 | Structure (SMILES) |
| --- | --- |
| 7.43 | CC(C)c1c(-c2ccn[nH]2)n(C)c2c(C#N)cnn2c1=O [Example 171] |
| 6.85 | CC(C)c1c(-c2ccc(C(F)(F)F)cc2)n(C)c2c(C#N)cnn2c1=O [Example 172] |
| 7.28 | CCc1c(-c2cccc(-c3ccccc3)c2)n(C)c2c(C#N)cnn2c1=O [Example 176] |
| 7.46 | C=Cc1c(C(C)C)c(=O)n2ncc(C#N)c2n1C [Example 179] |
| 7.21 | C=C(C)c1c(C(C)C)c(=O)n2ncc(C#N)c2n1C [Example 180] |
| 6.80 | CCn1cc(-c2c(C(C)C)c(=O)n3ncc(C#N)c3n2C)cn1 [Example 189] |
| 7.24 | CC(C)c1c(-c2cc(C3CC3)co2)n(C)c2c(C#N)cnn2c1=O [Example 190] |
| 6.12 | CCc1c(C)n(CC)c2c(C#N)cnn2c1=O [Example 191] |
| 5.82 | CCCn1c(C)c(CC)c(=O)n2ncc(C#N)c12 [Example 192] |
| 5.64 | CCc1c(C)n(CCOC)c2c(C#N)cnn2c1=O [Example 194] |
| 5.66 | CCc1c(C)n(CCO)c2c(C#N)cnn2c1=O [Example 195] |
| 8.22 | CCc1c(-c2cc[nH]c2)[nH]c2c(C#N)cnn2c1=O [Example 202] |
| 7.96 | CC(C)c1c(-c2cc[nH]c2)[nH]c2c(C#N)cnn2c1=O [Example 203] |
| 7.72 | CC(C)c1c(-c2ccc3c(c2)OC(F)(F)O3)[nH]c2c(C#N)cnn2c1=O [Example 204] |
| 7.64 | CC(C)c1c(-c2ccc(C(N)=O)c(F)c2)[nH]c2c(C#N)cnn2c1=O [Example 205] |
| 7.48 | CC(C)c1c(-c2ccc(OC(F)(F)F)c(Cl)c2)[nH]c2c(C#N)cnn2c1=O [Example 207] |
| 8.05 | CC(C)c1c(-c2cc(F)cc(C(N)=O)c2)[nH]c2c(C#N)cnn2c1=O [Example 208] |
| 7.74 | COc1ccc(-c2[nH]c3c(C#N)cnn3c(=O)c2C(C)C)cc1CO [Example 209] |
| 7.62 | CC(C)c1c(-c2ccn(C)c2)[nH]c2c(C#N)cnn2c1=O [Example 211] |
| 8.10 | CC(C)c1c(-c2cc3ccccc3[nH]2)[nH]c2c(C#N)cnn2c1=O [Example 212] |
| 7.59 | CC(C)c1c(NC(=O)c2ccccc2)[nH]c2c(C#N)cnn2c1=O [Example 214] |
| 7.70 | N#Cc1cnn2c(=O)c(Cl)c(-c3ccccc3)[nH]c12 [Example 216] |
| 4.60 | Cc1c(-c2ccccc2)c(=O)n2ncc(C#N)c2n1C [Example 221] |
| 8.05 | C=CCc1c(-c2ccccc2)[nH]c2c(C#N)cnn2c1=O [Example 223] |
| 6.43 | Cn1c(-c2ccccc2)c(C2CC2)c(=O)n2ncc(C#N)c12 [Example 226] |
| 7.89 | CCc1c(-c2cccc(-c3cnn(C)c3)c2)[nH]c2c(C#N)cnn2c1=O [Example 227] |
